Reference: the supplement of paper PMC10307832

How the values were obtained:
Assay in all cases: relative viability (nuclei count vs DMSO), 5 days (fraction); higher = more cells survive
[1] = compound: C1=CC=C(C(=C1)C2=CC=C(C=C2)C3=CSC4=C3C(=C(C(=O)N4)C#N)O)O + Cc1nc(Nc2ncc(C(=O)Nc3c(C)cccc3Cl)s2)cc(N2CCN(CCO)CC2)n1 [Dasatinib] (partner 0.075 µM)
Procedure, shortened: (§1)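 Lung cancer cell lines in 1536-well plates got either a single drug or a fixed anchor-drug dose together with five library-drug doses (not always all listed) in √10 steps, by pin tool, on the day after seeding. Nuclei were counted after 5 days, and relative viability is the treated-to-vehicle ratio of nuclei counts. Values are medians of duplicate plates.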

[2] = compound: O=C(CCCCCCNC(=O)c1cnc(N(c2ccccc2)c2ccccc2)nc1)NO [Ricolinostat] + CCNC(=O)c1noc(-c2cc(C(C)C)c(O)cc2O)c1-c1ccc(CN2CCOCC2)cc1 [Luminespib] (partner 0.01 µM)
Procedure, shortened: as §1

[3] = compound: CC1=CN2C(=O)C=C(N=C2C(=C1)C(C)NC3=CC=CC=C3)N4CCOCC4 [TGX 221] + CS(=O)(=O)N1CCN(Cc2cc3nc(-c4cccc5[nH]ncc45)nc(N4CCOCC4)c3s2)CC1 [Pictilisib] (partner 1 µM)
Procedure, shortened: as §1

[4] = compound: O=C(CCCCCCNC(=O)c1cnc(N(c2ccccc2)c2ccccc2)nc1)NO [Ricolinostat] + CS(=O)(=O)CCNCc1ccc(-c2ccc3ncnc(Nc4ccc(OCc5cccc(F)c5)c(Cl)c4)c3c2)o1 [Lapatinib] (partner 2 µM)
Procedure, shortened: as §1

| Cell Line | relative viability ([1]; first compound 0.08 µM) | relative viability ([1]; first compound 0.253 µM) | relative viability ([1]; first compound 0.8 µM) | relative viability ([1]; first compound 2.53 µM) | relative viability ([1]; first compound 8 µM) | relative viability ([2]; first compound 0.08 µM) | relative viability ([2]; first compound 0.253 µM) | relative viability ([2]; first compound 0.8 µM) | relative viability ([2]; first compound 2.53 µM) | relative viability ([3]; first compound 0.08 µM) | relative viability ([3]; first compound 0.253 µM) | relative viability ([3]; first compound 0.8 µM) | relative viability ([3]; first compound 2.53 µM) | relative viability ([3]; first compound 8 µM) | relative viability ([4]; first compound 0.08 µM) | relative viability ([4]; first compound 0.253 µM) | relative viability ([4]; first compound 0.8 µM) | relative viability ([4]; first compound 2.53 µM) |
| --- | --- | --- | --- | --- | --- | --- | --- | --- | --- | --- | --- | --- | --- | --- | --- | --- | --- | --- |
| NCI-H2342 | 0.315 | 0.345 | 0.309 | 0.354 | 0.284 | 0.541 | 0.78 | 0.835 | 0.762 |  |  |  |  |  |  |  |  |  |
| SK-LU-1 | 0.172 | 0.198 | 0.161 | 0.198 | 0.196 | 0.199 | 0.204 | 0.212 | 0.223 | 0.601 | 0.536 | 0.576 | 0.553 | 0.568 | 0.75 | 0.782 | 0.854 | 0.653 |
| NCI-H2023 | 0.444 | 0.521 | 0.648 | 0.55 | 0.433 | 0.761 | 0.434 | 0.752 | 0.665 | 0.23 | 0.244 | 0.252 | 0.215 | 0.228 | 0.552 | 0.91 | 0.792 | 0.487 |
| NCI-H1299 |  |  |  |  |  |  |  |  |  | 0.74 | 0.728 | 0.787 | 0.654 | 0.617 | 0.941 | 0.871 | 0.902 | 0.895 |
| LOU-NH91 | 0.493 | 0.589 | 0.506 | 0.542 | 0.489 | 0.322 | 0.371 | 0.347 | 0.313 | 0.568 | 0.532 | 0.528 | 0.53 | 0.531 |  | 0.872 | 0.778 | 0.78 |
| LCLC-103H | 0.33 | 0.415 | 0.458 | 0.463 | 0.404 | 0.869 | 0.887 | 0.862 | 0.829 | 0.566 | 0.592 | 0.678 | 0.577 | 0.609 |  |  |  |  |
| SW 1573 | 0.498 | 0.618 | 0.662 | 0.666 | 0.369 | 0.389 | 0.214 | 0.144 | 0.154 | 0.489 | 0.458 | 0.43 | 0.461 | 0.467 | 0.941 | 1.23 | 1.12 | 1 |
| NCI-H1755 | 0.396 | 0.466 | 0.349 | 0.368 | 0.423 | 0.489 | 0.528 | 0.442 | 0.752 | 0.412 | 0.381 | 0.406 | 0.372 | 0.425 | 0.812 |  | 1.02 | 1.01 |
| COR-L 105 | 0.337 | 0.301 | 0.272 | 0.302 | 0.309 |  | 0.746 | 0.765 | 0.749 | 0.458 | 0.412 | 0.424 | 0.469 | 0.421 | 0.342 | 0.396 | 0.399 | 0.384 |
| NCI-H1793 | 0.356 | 0.354 | 0.419 | 0.4 | 0.326 |  | 0.15 | 0.171 | 0.145 | 0.274 | 0.303 | 0.317 | 0.413 | 0.291 |  | 0.739 | 0.61 | 0.895 |
| HCC-366 | 0.505 | 0.844 | 0.64 | 0.737 | 0.353 |  |  |  |  | 0.103 | 0.152 | 0.102 | 0.147 | 0.0862 | 1.02 | 1.02 | 0.918 | 0.363 |
| NCI-H1703 |  |  |  |  |  |  |  |  |  | 0.234 | 0.264 | 0.251 | 0.202 | 0.234 | 1.03 | 0.928 | 1.06 | 1.07 |
| NCI-H441 | 0.437 | 0.626 | 0.582 | 0.636 | 0.538 |  | 0.376 | 0.328 | 0.373 | 0.486 | 0.447 | 0.456 | 0.511 | 0.508 |  |  |  |  |
| SW 900 | 0.596 | 0.937 | 0.594 | 0.361 | 0.531 | 0.166 | 0.164 | 0.183 | 0.17 |  |  |  |  |  |  |  |  |  |
| HCC-44 |  |  |  |  |  | 0.98 | 1.04 | 1.02 | 0.911 | 0.648 | 0.571 | 0.615 | 0.555 | 0.541 | 1.04 | 0.976 | 0.922 | 0.713 |
| HCC-78 | 0.354 | 0.388 | 0.327 | 0.363 | 0.239 |  |  |  |  | 0.242 | 0.179 |  | 0.231 | 0.231 |  | 0.803 | 0.699 | 0.385 |
| Calu-6 |  |  |  |  |  |  |  |  |  | 0.953 | 0.889 | 0.86 | 0.922 | 0.896 | 0.926 | 1.03 | 1.01 | 0.785 |
| NCI-H1623 | 0.484 | 0.548 | 0.496 | 0.603 | 0.546 | 0.481 | 0.517 | 0.541 | 0.523 |  |  |  |  |  |  |  |  |  |
| EBC-1 |  |  |  |  |  |  |  |  |  | 0.331 | 0.366 | 0.369 | 0.291 | 0.304 | 0.206 | 0.207 | 0.221 | 0.215 |
| NCI-H522 | 0.849 | 0.761 | 0.957 | 0.829 | 0.837 | 1.39 | 1.01 | 1.28 | 1.19 |  |  |  |  |  |  |  |  |  |
| A549 |  |  |  |  |  |  |  |  |  | 0.485 | 0.496 | 0.46 | 0.494 | 0.396 | 0.977 | 0.887 | 0.859 | 0.72 |
| IA-LM |  |  |  |  |  |  |  |  |  | 0.276 |  | 0.423 | 0.288 | 0.412 |  | 0.841 | 0.542 | 0.398 |
| ChaGo-K-1 | 0.48 | 0.614 | 0.661 | 0.595 | 0.542 | 0.679 | 0.633 | 0.561 | 0.577 | 0.548 | 0.644 | 0.683 | 0.47 | 0.966 |  |  |  |  |
